Test results taken from ChEMBL document CHEMBL5584307, “Discovery of a Potent and Orally Bioavailable Xanthine Oxidase/Urate Transporter 1 Dual Inhibitor as a Potential Treatment for Hyperuricemia and Gout” (J Med Chem, 2024).

What was measured:
[1] = Toxicity in cynomolgous monkey assessed as decrease in body weight at 90 to 200 mg/kg/day for 28 days consecutively; format: organism-based, Macaca fascicularis; details: cynomolgus monkey, in vivo, 672 h; dose 90-200 mg/kg/day, time 28 day
[2] = Oral bioavailability in Cynomolgous monkey at 5 mg/kg measured upto 24 hrs by LC-MS/MS analysis; format: ADME, organism-based, Macaca fascicularis; details: cynomolgus monkey, in vivo
[3] = Volume of distribution at steady state in Cynomolgous monkey at 5 mg/kg, po or 1 mg/kg, iv measured upto 24 hrs by LC-MS/MS analysis; format: ADME, organism-based, Macaca fascicularis; details: cynomolgus monkey, in vivo
Cytochrome P450 2C8 = target: T1, Cytochrome P450 2C8 (Homo sapiens, UniProt P10632); assay: Inhibition of CYP2C8 in human liver microsomes in presence of NADPH by LC-MS/MS analysis; format: ADME, Microsome
T1 sequence (P10632 whole entry): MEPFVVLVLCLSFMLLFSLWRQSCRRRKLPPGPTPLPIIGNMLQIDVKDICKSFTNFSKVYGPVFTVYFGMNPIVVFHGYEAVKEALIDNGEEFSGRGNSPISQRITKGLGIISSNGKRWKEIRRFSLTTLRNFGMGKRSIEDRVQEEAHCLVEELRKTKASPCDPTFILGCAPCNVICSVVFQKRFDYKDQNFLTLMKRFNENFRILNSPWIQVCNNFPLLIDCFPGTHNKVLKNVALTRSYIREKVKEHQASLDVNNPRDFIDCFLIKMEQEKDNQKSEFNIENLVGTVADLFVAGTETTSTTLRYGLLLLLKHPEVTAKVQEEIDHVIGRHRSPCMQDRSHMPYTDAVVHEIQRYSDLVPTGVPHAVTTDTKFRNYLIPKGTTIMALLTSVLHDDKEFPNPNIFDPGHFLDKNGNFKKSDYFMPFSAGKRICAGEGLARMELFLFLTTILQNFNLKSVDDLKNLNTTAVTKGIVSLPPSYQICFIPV

Cytochrome P450 1A2 = target: T2, Cytochrome P450 1A2 (Homo sapiens, UniProt P05177); assay: Inhibition of CYP1A2 in human liver microsomes in presence of NADPH by LC-MS/MS analysis; format: ADME, Microsome
T2 sequence (P05177 whole entry): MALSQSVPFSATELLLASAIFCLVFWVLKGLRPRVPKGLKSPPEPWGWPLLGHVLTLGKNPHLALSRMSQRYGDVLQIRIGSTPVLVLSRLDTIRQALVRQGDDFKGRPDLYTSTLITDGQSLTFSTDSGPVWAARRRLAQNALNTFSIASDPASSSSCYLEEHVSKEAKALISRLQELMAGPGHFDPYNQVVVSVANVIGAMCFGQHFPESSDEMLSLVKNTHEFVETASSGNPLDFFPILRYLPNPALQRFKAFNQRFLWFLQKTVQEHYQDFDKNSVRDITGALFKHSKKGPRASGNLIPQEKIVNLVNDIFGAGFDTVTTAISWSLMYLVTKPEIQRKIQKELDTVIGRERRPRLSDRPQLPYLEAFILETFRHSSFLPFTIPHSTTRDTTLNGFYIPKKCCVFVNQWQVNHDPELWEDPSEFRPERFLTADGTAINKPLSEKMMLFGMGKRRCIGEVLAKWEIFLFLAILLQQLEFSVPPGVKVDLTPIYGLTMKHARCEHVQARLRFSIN

Sapajus apella [4] = details: dose 30.0 mg/kg/day, route po, time 3.0 day
[5] = Toxicity in rat assessed as increase in ALP level at 120 mg/kg/day for 28 days; format: organism-based; details: in vivo, 672 h, time 28 day
[6] = Toxicity in rat assessed as diffuse hepatocytes hypertrophy at 120 mg/kg/day for 28 days by H and E staining based analysis; format: organism-based; details: in vivo, 672 h, time 28 day
[7] = Toxicity in cynomolgous monkey assessed as increase in fluid feces at 90 to 200 mg/kg/day for 28 days consecutively; format: organism-based, Macaca fascicularis; details: cynomolgus monkey, in vivo, 672 h; dose 90-200 mg/kg/day, time 28 day
[8] = Half life in Tufted capuchin monkey at 10 mg/kg, po measured for 24 hrs by LC-MS/MS analysis; format: ADME, organism-based; details: sapajus apella, in vivo
[9] = Toxicity in rat assessed as single-cellular necrosis of mucosal epithelium in colon at 120 mg/kg/day for 28 days by H and E staining based analysis; format: organism-based; details: in vivo, 672 h, time 28 day
[10] = Toxicity in cynomolgous monkey assessed as drug tolerance at 30 to 200 mg/kg/day for 28 days consecutively; format: organism-based, Macaca fascicularis; details: cynomolgus monkey, in vivo, 672 h; dose 30-200 mg/kg/day, time 28 day
[11] = Oral bioavailability in overnight-fasted Sprague-Dawley rat at 5 mg/kg measured upto 24 hrs by LC-MS/MS analysis; format: ADME, organism-based; details: in vivo
[12] = AUC (last) in overnight-fasted Sprague-Dawley rat at 1 mg/kg, iv measured upto 24 hrs by LC-MS/MS analysis; format: ADME, organism-based; details: in vivo
[13] = Toxicity in rat assessed as acute inflammation in pylorus at 120 mg/kg/day for 28 days by H and E staining based analysis; format: organism-based; details: in vivo, 672 h, time 28 day
[14] = Toxicity in cynomolgous monkey assessed as development-limiting effect; parameters: species or system Macaca fascicularis; details: cynomolgus monkey, in vivo
[15] = Cmax in overnight-fasted Sprague-Dawley rat at 5 mg/kg, po measured upto 24 hrs by LC-MS/MS analysis; format: ADME, organism-based; details: in vivo
[16] = Stability in dog liver microsomes assessed as half life at 1 uM measured upto 60 mins in presence of NADPH by LC-MS/MS analysis; format: ADME, Canis lupus familiaris, Microsome
[17] = AUC (last) in Tufted capuchin monkey at 100 mg/kg, po measured for 24 hrs by LC-MS/MS analysis; format: ADME, organism-based; details: sapajus apella, in vivo
[18] = Cmax in Cynomolgous monkey at 5 mg/kg, po measured upto 24 hrs by LC-MS/MS analysis; format: ADME, organism-based, Macaca fascicularis; details: cynomolgus monkey, in vivo
[19] = AUC (last) in Beagle dog at 5 mg/kg, po measured upto 24 hrs by LC-MS/MS analysis; format: ADME, organism-based, Canis lupus familiaris; details: in vivo
Sapajus apella [20] = assay: Urate lowering effect in Tufted capuchin monkey assessed as serum xanthine level at 30 mg/kg/day, po qd for 3 days consecutively; format: functional; details: time 3 day
[21] = Toxicity in monkey; parameters: species or system Macaca mulatta; details: rhesus monkey, in vivo
[22] = AUC (last) in Cynomolgous monkey at 5 mg/kg, po measured upto 24 hrs by LC-MS/MS analysis; format: ADME, organism-based, Macaca fascicularis; details: cynomolgus monkey, in vivo
[23] = Clearance in Beagle dog at 1 mg/kg, iv measured upto 24 hrs by LC-MS/MS analysis; format: ADME, organism-based, Canis lupus familiaris; details: in vivo
[24] = Toxicity in cynomolgous monkey administered daily for 28 days; parameters: species or system Macaca fascicularis; details: cynomolgus monkey, in vivo; time 28 day
[25] = Stability in human liver microsomes assessed as half life at 1 uM measured upto 60 mins in presence of NADPH by LC-MS/MS analysis; format: ADME, Microsome
[26] = Cmax in Tufted capuchin monkey at 10 mg/kg, po measured for 24 hrs by LC-MS/MS analysis; format: ADME, organism-based; details: sapajus apella, in vivo
[27] = Genotoxicity in Salmonella typhimurium TA102 by Ames test; format: toxicity; details: salmonella enterica subsp. enterica serovar typhimurium

N#Cc1cc(-c2ccc(C(=O)O)c(O)c2)c2oc(F)cc2c1
Activity [1]: Toxic | bioavailability [2]: 42.4% | Vdss [3]: 0.297 L/kg | IC50 (Cytochrome P450 2C8): 12.2 µM | IC50 (Cytochrome P450 1A2): > 50 µM | AUC (Sapajus apella [4]): 504000 ng·h/mL | Activity [5]: Toxic | Activity [6]: Toxic | Activity [7]: Toxic | half-life [8]: 1.52 h | Activity [9]: Toxic | Activity [10]: Non-Toxic | bioavailability [11]: 145% | AUC(0-t) at 24 h [12]: 10900 ng·h/mL | Activity [13]: Toxic | Activity [14]: Non-Toxic | Cmax [15]: 17200 ng/mL | half-life at 1 µM [16]: 21.1 h | AUC(0-t) at 24 h [17]: 302000 ng·h/mL | Cmax [18]: 3360 ng/mL | AUC(0-t) at 24 h [19]: 11500 ng·h/mL | Activity (Sapajus apella [20]): 6.19 µg·h/mL | MTD [21]: 1000 mg/kg | AUC(0-t) at 24 h [22]: 34200 ng·h/mL | clearance [23]: 5.07 mL/min/kg | NOAEL at 672 h [24]: 30 mg/kg/day | half-life at 1 µM [25]: 3.75 h | Cmax [26]: 2470 ng/mL | Activity [27]: Non-Toxic
